Data: PMC7080406 (eLife, 2020)
Read-outs that look alike come from different tables or passages of the source.

Assays:
MT1 [1] = target: T1, MT1 (Homo sapiens, UniProt P48039); assay: [3H]melatonin competition radioligand binding, MT1 membranes; conditions: read-out: MT1 pKi ± SEM (converted)
T1 construct: expressed in transfected cells; host or cells: HEK293T (ATCC CRL-11268), transient transfection
Description: (§1) The Radioligand binding assays were conducted by the NIMH Psychoactive Drug Screening Program (PDSP). The NIMH PDSP is directed by Bryan L. Roth, MD, PhD, at the University of North Carolina at Chapel Hill, North Carolina, and Program Officer Jamie Driscoll at NIMH, Bethesda, MD. Binding assay procedures and protocols are also available online at http://pdspdb.unc.edu/pdspWeb/?site=assays. […] Assay plates were sealed and incubated for 4 hr at 37°C in a humidified incubator until harvesting. Plates were harvested using vacuum filtration onto 0.3% polyethyleneimine pre-soaked 96-well Filtermat A (PerkinElmer) and washed three times with cold wash buffer (50 mM Tris, pH 7.4). Filters were dried and melted with a scintillation cocktail (Meltilex, PerkinElmer). Radioactivity was counted using a Wallac TriLux Microbeta counter (PerkinElmer). Results were analyzed using GraphPad Prism 7.0.

MT1 [2] = target: T1, MT1; assay: GloSensor Gi/o-mediated cAMP production inhibition assay, MT1; format: cell-based; conditions: for EC50: Gi/o mediated
Description: Briefly, HEK293 T cells (as above) were transiently co-transfected with receptor (MT1 or MT2) and GloSensor cAMP (Promega) plasmids overnight, plated in Poly-L-Lysine coated 384-well white clear bottom plates in DMEM + 1% dialyzed FBS. Cells were used for assays at a minimum of 6 hr after plating. Culture medium was first removed and cells were stimulated with drugs in assay buffer (1x HBSS, 20 mM HEPES, 1 mg/ml BSA, 0.1 mg/ml ascorbic acid, pH 7.4) for 15 min at room temperature (this and all the following steps), followed by addition of a mixture of isoproterenol (final of 100 nM) and luciferin (final of 1 mM) for Gi/o-cAMP production inhibition assays and luciferin (final of 1 mM) for Gs-cAMP production assays. The plates were counted for luminescence after 25 min in a luminescence plate reader. Results were analyzed using GraphPad Prism 7.0.

MT1 wildtype (WT) = target: T2, MT1 wildtype (WT) (Homo sapiens, UniProt P48039); assay: Tango β-arrestin recruitment assay, MT1 wildtype; format: cell-based; conditions: normalized individually (basal 0%, maximum 100%); mean ± SEM, minimum of 3 assays; read-out: pEC50, Tango, MT1 WT (converted)
T2 construct: host or cells: HTLA cells (HEKT based)
Description: In brief, HTLA cells were transiently transfected with receptor TANGO DNA constructs overnight in DMEM with 10% FBS. Transfected cells were then plated into poly-L-Lys coated 384-well plates using DMEM supplemented with 1% dialyzed FBS. After 6 hr incubation, drug dilutions, prepared in DMEM with 1% dFBS, were added for incubation overnight (16–20 hr). Medium and drug solutions were removed, Bright-Glo reagent (20 uL/well) was added for luminescence counting 20 min later. Results were analyzed in GraphPad Prism 7.0.

5-HT1A = target: T3, 5-HT1A (Homo sapiens, UniProt P08908); assay: Off-target radioligand binding, 5-HT1A
T3 construct: expressed in transfected cells; host or cells: HEK293T, transient transfection (NIMH PDSP)
T3 sequence (P08908 1-422): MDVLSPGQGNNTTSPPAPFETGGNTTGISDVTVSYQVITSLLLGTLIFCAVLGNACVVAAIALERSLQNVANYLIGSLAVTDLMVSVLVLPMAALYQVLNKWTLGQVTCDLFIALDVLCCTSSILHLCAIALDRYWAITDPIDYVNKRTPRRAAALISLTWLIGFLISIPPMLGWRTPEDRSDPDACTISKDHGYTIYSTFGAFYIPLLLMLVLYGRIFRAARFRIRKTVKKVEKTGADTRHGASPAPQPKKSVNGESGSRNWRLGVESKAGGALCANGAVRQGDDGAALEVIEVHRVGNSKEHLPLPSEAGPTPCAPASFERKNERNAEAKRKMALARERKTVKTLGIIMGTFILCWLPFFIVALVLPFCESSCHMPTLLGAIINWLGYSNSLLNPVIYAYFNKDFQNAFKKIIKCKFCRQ
Description: as §1

5-HT7A [3] = target: T4, 5-HT7A (Homo sapiens, UniProt P34969); assay: Off-target radioligand binding, 5-HT7A
T4 construct: expressed in transfected cells; host or cells: HEK293T, transient transfection (NIMH PDSP)
Description: as §1

5-HT7A [4] = target: T4, 5-HT7A; assay: Gs-mediated cAMP production assay (GloSensor); format: cell-based; conditions: weak partial agonist; receptor not given
MT2 [5] = target: T5, MT2 (Homo sapiens, UniProt P49286); assay: [3H]melatonin competition radioligand binding, MT2 membranes; design: expressed in transfected cells; host or cells: HEK293T (ATCC CRL-11268), transient transfection; conditions: read-out: MT2 pKi ± SEM (converted)
T5 sequence (P49286 1-362): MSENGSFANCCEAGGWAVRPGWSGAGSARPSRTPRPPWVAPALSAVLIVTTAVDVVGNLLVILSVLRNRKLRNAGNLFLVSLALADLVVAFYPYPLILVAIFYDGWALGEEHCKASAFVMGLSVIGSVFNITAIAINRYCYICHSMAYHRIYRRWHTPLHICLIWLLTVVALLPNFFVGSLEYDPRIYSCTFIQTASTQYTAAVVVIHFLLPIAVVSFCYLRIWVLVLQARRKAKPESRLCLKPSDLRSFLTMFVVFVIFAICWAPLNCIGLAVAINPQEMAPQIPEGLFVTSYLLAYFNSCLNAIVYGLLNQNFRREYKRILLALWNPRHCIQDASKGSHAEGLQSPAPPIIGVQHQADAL
Description: as §1

MT2 [6] = target: T5, MT2; assay: Bias factor, Gi-cAMP versus Tango (Black and Leff operational model), MT2; format: cell-based; design: expressed in transfected cells; host or cells: HEK293T (ATCC CRL-11268), transient transfection; conditions: G-protein over β-arrestin at MT2; reference melatonin; 10^ΔΔLog(τ/KA)
Description: Bias factors were estimated according to the published procedure [Kenakin et al. (2012)] with modifications. Briefly, normalized and pooled results were analyzed by fitting the Black and Leff operational model in Prism 7.0 to obtain Log(τ/KA) values for each pathway (Tango and Gi-cAMP). Within each signaling pathway, a difference of Log(τ/KA), ΔLog(τ/KA), between a test compound and selected reference (melatonin in this case) was calculated. For a testing compound, the difference of ΔLog(τ/KA), ΔΔLog(τ/KA), was then obtained between two pathways. The bias factor is 10^ΔΔLog(τ/KA).

T4 sequence (P34969 1-445 isoform P34969-2): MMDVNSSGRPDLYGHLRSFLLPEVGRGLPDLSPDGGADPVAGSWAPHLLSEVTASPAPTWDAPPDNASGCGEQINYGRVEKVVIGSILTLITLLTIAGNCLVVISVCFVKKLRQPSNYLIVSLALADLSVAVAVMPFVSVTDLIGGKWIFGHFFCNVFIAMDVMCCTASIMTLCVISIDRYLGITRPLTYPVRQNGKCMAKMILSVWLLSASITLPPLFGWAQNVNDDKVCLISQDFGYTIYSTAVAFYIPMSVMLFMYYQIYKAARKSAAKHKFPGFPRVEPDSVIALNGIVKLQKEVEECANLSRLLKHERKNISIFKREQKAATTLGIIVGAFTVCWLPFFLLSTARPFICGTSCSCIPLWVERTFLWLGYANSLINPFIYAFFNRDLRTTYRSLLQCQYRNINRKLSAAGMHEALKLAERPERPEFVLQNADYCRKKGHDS
T1 sequence (P48039 whole entry): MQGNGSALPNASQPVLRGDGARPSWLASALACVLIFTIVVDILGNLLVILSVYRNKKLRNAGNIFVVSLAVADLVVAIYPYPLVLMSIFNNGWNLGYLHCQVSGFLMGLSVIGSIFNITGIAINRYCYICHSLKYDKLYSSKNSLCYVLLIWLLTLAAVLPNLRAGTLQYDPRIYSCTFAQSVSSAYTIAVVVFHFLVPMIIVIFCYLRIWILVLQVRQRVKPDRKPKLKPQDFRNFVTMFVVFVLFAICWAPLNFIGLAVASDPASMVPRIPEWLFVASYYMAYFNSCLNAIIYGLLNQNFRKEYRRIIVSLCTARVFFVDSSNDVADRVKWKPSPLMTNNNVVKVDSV
T2 sequence (P48039 whole entry): as above

## COc1ccc2[nH]cc(CCNC(N)=O)c2c1 [Compound 28, [2-(5-methoxy-1H-indol-3-yl)ethyl]urea]
MT1 [1]
  Ki: 16.6 nM
MT1 [2]; SEM, N = 3, read-out: MT1 pEC50 ± SEM (converted)
  EC50: 0.0407 nM
MT1 [2]; read-out: MT1 EC50
  EC50: 0.04 nM
MT1 [2]; ligand efficiency (based on EC50)
  MT1 LE: 0.86 kcal/mol per non-hydrogen atom
MT1 [2]; read-out: MT1 Emax ± SEM
  Emax: 95.3 ± 2.6%
MT1 wildtype (WT)
  EC50: 22.9 nM
5-HT1A; 10 μM
  inhibition at 10 µM: > 50%
5-HT1A; read-out: pKi, 5-HT1A (converted)
  Ki: 851 nM
5-HT7A [3]; 10 μM
  inhibition at 10 µM: > 50%
5-HT7A [3]; read-out: pKi, 5-HT7A (converted)
  Ki: 288 nM
5-HT7A [4]
  EC50: 1820 nM
MT2 [5]
  Ki: 23.4 nM
MT2 [6]
  bias factor: 33.9
